In ChEMBL document CHEMBL5625227, “Discovery and optimization of 2,3-diaryl-1,3-thiazolidin-4-one-based derivatives as potent and selective cytotoxic agents with anti-inflammatory activity” (Eur J Med Chem, 2023):
Active and inactive are the calls of the source. No cut-off for these calls is given here.

Key:
Rattus norvegicus [1] = experiment: Antiinflammatory activity against carrageenan-induced paw edema Sprague-Dawley rat model assessed as inhibition of paw edema by measuring edema thickness at 50 mg/kg, po measured after 1 hr (reference value: 0.71 +/- 0.03 mm); type: functional
HT-29 [2] = experiment: Induction of apoptosis in human HT-29 cells assessed as accumulation of cells at late apoptotic stage at 0.25 uM incubated for 24 hrs by Annexin V-FITC/propidium iodide staining based flow cytometry analysis (reference value: 0.2%); type: functional
Ehrlich [3] = experiment: Antitumor activity against mouse Ehrlich solid carcinoma cells bearing adult male swiss albino mouse assessed as tumor growth inhibition at 50 mg/kg, po administered every other day and observed at 13 days relative to control; type: functional; details: 312 h, time 13 day, read-out: TGI
Sus scrofa = organism: Sus scrofa; experiment: Inhibition of porcine brain tubulin polymerization at 1 uM by fluorescence-based tubulin polymerization assay
Ehrlich [4] = experiment: Antitumor activity against mouse Ehrlich solid carcinoma cells bearing adult male swiss albino mouse assessed as decrease in tumor volume at 50 mg/kg, po administered every other day and observed at 5 days; type: functional, organism-based; details: time 5.0 day
Ehrlich [5] = experiment: Antitumor activity against mouse Ehrlich solid carcinoma cells bearing adult male swiss albino mouse assessed as decrease in tumor weight at 50 mg/kg, po administered every other day and observed at 14 days; type: functional, organism-based; details: time 14.0 day
HT-29 [6] = experiment: Anticlonogenic activity against human HT-29 cells assessed as reduction in number of colonies at 0.25 uM incubated for 24 hrs by clonogenic survival assay; type: functional, cell-based
Rattus norvegicus [7] = experiment: Antiinflammatory activity against carrageenan-induced paw edema Sprague-Dawley rat model assessed as inhibition of paw edema by measuring edema thickness at 50 mg/kg, po measured after 3 hrs (reference value: 1.41 +/- 0.13 mm); type: functional
A2780 = experiment: Cytotoxicity against human A2780 cells assessed as inhibition in cell growth incubated for 72 hrs by MTT assay; type: functional, cell-based; details: A2780, 72 h
HT-29 [8] = experiment: Cytotoxicity against human HT-29 cells assessed as inhibition in cell growth incubated for 72 hrs by MTT assay; type: functional, cell-based; details: HT-29, 72 h
[9] = Acute ulcerogenic activity in Sprague-Dawley male rat assessed as change in normal keratin at 50 mg/kg/day, po administered for 3 days by hematoxylin and eosin staining method; type: toxicity, organism-based, Stomach; details: in vivo, 72 h, time 3 day
Ehrlich [10] = experiment: Antitumor activity against mouse Ehrlich solid carcinoma cells bearing adult male swiss albino mouse assessed as decrease in tumor volume at 50 mg/kg, po administered every other day and observed at 13 days; type: functional, organism-based; details: time 13.0 day
[11] = target: T1, Prostaglandin G/H synthase 1 (Ovis aries, UniProt P05979); experiment: Inhibition of ovine COX-1
T1 sequence (P05979 whole entry): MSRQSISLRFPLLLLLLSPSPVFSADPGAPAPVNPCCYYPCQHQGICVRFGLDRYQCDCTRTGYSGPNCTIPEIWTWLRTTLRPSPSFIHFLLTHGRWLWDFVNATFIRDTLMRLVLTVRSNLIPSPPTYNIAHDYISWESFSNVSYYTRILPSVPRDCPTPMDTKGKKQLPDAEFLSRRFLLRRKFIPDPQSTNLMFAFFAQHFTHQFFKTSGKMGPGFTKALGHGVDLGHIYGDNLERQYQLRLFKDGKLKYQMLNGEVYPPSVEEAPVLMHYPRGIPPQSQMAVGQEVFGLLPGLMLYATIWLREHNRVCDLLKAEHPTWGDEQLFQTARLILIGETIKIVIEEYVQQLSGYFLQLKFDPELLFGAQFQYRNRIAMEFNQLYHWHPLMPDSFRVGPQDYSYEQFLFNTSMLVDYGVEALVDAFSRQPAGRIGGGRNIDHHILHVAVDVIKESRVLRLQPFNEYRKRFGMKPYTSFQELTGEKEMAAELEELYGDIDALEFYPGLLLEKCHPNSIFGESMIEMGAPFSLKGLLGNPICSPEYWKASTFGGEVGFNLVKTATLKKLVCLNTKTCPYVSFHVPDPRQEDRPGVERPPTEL

MCF7 = experiment: Cytotoxicity against human MCF7 cells assessed as inhibition in cell growth incubated for 72 hrs by MTT assay; type: functional, cell-based; details: MCF7, 72 h
[12] = Acute ulcerogenic activity in Sprague-Dawley male rat assessed as change in normal glands at 50 mg/kg/day, po administered for 3 days by hematoxylin and eosin staining method; type: toxicity, organism-based, Stomach; details: in vivo, 72 h, time 3 day
[13] = Selectivity index, ratio of IC50 for cytotoxicity against human MRC5 cells to IC50 for cytotoxicity against human MCF7 cells; details: MRC5 cells versus MCF7 cells
Ehrlich [14] = experiment: Antitumor activity against mouse Ehrlich solid carcinoma cells bearing adult male swiss albino mouse assessed as decrease in tumor volume at 50 mg/kg, po administered every other day and observed at 9 days; type: functional, organism-based; details: time 9.0 day
[15] = Cytotoxicity against human MRC5 cells assessed as inhibition in cell growth incubated for 72 hrs by MTT assay; type: toxicity, cell-based
Rattus norvegicus [16] = experiment: Antiinflammatory activity against carrageenan-induced paw edema Sprague-Dawley rat model assessed as inhibition of paw edema by measuring edema thickness at 50 mg/kg, po measured after 5 hrs (reference value: 1.39 +/- 0.11 mm); type: functional
Rattus norvegicus [17] = experiment: Antiinflammatory activity against carrageenan-induced paw edema Sprague-Dawley rat model assessed as inhibition of inflammation at 50 mg/kg, po after 5 hrs relative to control; type: functional; parameters: scale not given: the % may be the effect or the level left
Rattus norvegicus [18] = experiment: Antiinflammatory activity against carrageenan-induced paw edema Sprague-Dawley rat model assessed as inhibition of inflammation at 50 mg/kg, po after 1 hr relative to control; type: functional; parameters: scale not given: the % may be the effect or the level left
[19] = Acute ulcerogenic activity in Sprague-Dawley male rat assessed as average severity of ulcers at 50 mg/kg/day, po administered for 3 days; type: toxicity, organism-based; details: in vivo, 72 h, time 3 day
[20] = Selectivity index, ratio of IC50 for cytotoxicity against human MRC5 cells to IC50 for cytotoxicity against human A2780 cells; details: MRC5 cells versus A2780 cells
[21] = Selectivity index, ratio of IC50 for cytotoxicity against human MRC5 cells to IC50 for cytotoxicity against human HT-29 cells; details: MRC5 cells versus HT-29 cells
HT-29 [22] = experiment: Induction of apoptosis in human HT-29 cells assessed as accumulation of cells at necrotic stage at 0.25 uM incubated for 24 hrs by Annexin V-FITC/propidium iodide staining based flow cytometry analysis (reference value: 8.1%); type: functional
[23] = Acute ulcerogenic activity in Sprague-Dawley male rat assessed as ulcer index at 50 mg/kg/day, po administered for 3 days; type: toxicity, organism-based; details: in vivo, 72 h, time 3 day
Rattus norvegicus [24] = experiment: Antiinflammatory activity against carrageenan-induced paw edema Sprague-Dawley rat model assessed as inhibition of inflammation at 50 mg/kg, po after 3 hrs relative to control; type: functional; parameters: scale not given: the % may be the effect or the level left
HT-29 [25] = experiment: Anti-migration activity in human HT-29 cells assessed as suppression in cell migration at 0.250 uM incubated 48 hrs by wound-healing assay; type: functional, cell-based; details: dose 0.25 µM
[26] = Acute ulcerogenic activity in Sprague-Dawley male rat assessed as average number of ulcers at 50 mg/kg/day, po administered for 3 days; type: toxicity, organism-based; details: in vivo, 72 h, time 3 day
[27] = Acute ulcerogenic activity in Sprague-Dawley male rat assessed as change in normal lamina propria at 50 mg/kg/day, po administered for 3 days by hematoxylin and eosin staining method; type: toxicity, organism-based, Stomach; details: in vivo, 72 h, time 3 day
[28] = Acute ulcerogenic activity in Sprague-Dawley male rat assessed as incidence of ulcer/10 animal at 50 mg/kg/day, po administered for 3 days; type: toxicity, organism-based; details: in vivo, 72 h, time 3 day
HT-29 [29] = experiment: Induction of apoptosis in human HT-29 cells assessed as accumulation of cells at viable stage at 0.25 uM incubated for 24 hrs by Annexin V-FITC/propidium iodide staining based flow cytometry analysis (Rvb=91.7%); type: functional
HT-29 [30] = experiment: Induction of apoptosis in human HT-29 cells assessed as accumulation of cells at early apoptotic stage at 0.25 uM incubated for 24 hrs by Annexin V-FITC/propidium iodide staining based flow cytometry analysis (reference value: 0.1%); type: functional
[31] = Acute ulcerogenic activity in Sprague-Dawley male rat assessed as change in normal keratinized gastric mucosa at 50 mg/kg/day, po administered for 3 days by hematoxylin and eosin staining method; type: toxicity, organism-based, Stomach; details: in vivo, 72 h, time 3 day
[32] = Acute ulcerogenic activity in Sprague-Dawley male rat assessed as congestion in submucosa at 50 mg/kg/day, po administered for 3 days by hematoxylin and eosin staining method; type: toxicity, organism-based, Stomach; details: in vivo, 72 h, time 3 day
HT-29 [33] = experiment: Induction of apoptosis in human HT-29 cells assessed as accumulation of cells at late apoptotic stage at 0.5 uM incubated for 24 hrs by Annexin V-FITC/propidium iodide staining based flow cytometry analysis (reference value: 0.2%); type: functional
HT-29 [34] = experiment: Induction of apoptosis in human HT-29 cells assessed as accumulation of cells at necrotic stage at 0.5 uM incubated for 24 hrs by Annexin V-FITC/propidium iodide staining based flow cytometry analysis (reference value: 8.1%); type: functional
HT-29 [35] = experiment: Induction of apoptosis in human HT-29 cells assessed as accumulation of cells at early apoptotic stage at 0.5 uM incubated for 24 hrs by Annexin V-FITC/propidium iodide staining based flow cytometry analysis (reference value: 0.1%); type: functional
HT-29 [36] = experiment: Induction of apoptosis in human HT-29 cells assessed as accumulation of cells at viable stage at 0.5 uM incubated for 24 hrs by Annexin V-FITC/propidium iodide staining based flow cytometry analysis (reference value: 91.7%); type: functional
HT-29 [37] = experiment: Induction of cell cycle arrest in human HT-29 cells assessed as increase the number of cells at S phase at 0.500 uM incubated for 24 hrs by propidium iodide staining based flow cytometry analysis relative to control; type: functional; details: dose 0.5 µM
HT-29 [38] = experiment: Anticlonogenic activity against human HT-29 cells assessed as reduction in number of colonies at 0.500 uM incubated for 24 hrs by clonogenic survival assay; type: functional, cell-based; details: dose 0.5 µM
HT-29 [39] = experiment: Anti-migration activity in human HT-29 cells assessed as suppression in cell migration at 0.500 uM incubated 48 hrs by wound-healing assay; type: functional, cell-based; details: dose 0.5 µM
HT-29 [40] = experiment: Induction of cell cycle arrest in human HT-29 cells assessed as increase the number of cells at G2/M phase at 0.500 uM incubated for 24 hrs by propidium iodide staining based flow cytometry analysis relative to control; type: functional; details: dose 0.5 µM
[41] = Acute ulcerogenic activity in Sprague-Dawley male rat assessed as change in hyperactive glands at 50 mg/kg/day, po administered for 3 days by hematoxylin and eosin staining method; type: toxicity, organism-based, Stomach; details: in vivo, 72 h, time 3 day
[42] = Acute ulcerogenic activity in Sprague-Dawley male rat assessed as congestion in edema at 50 mg/kg/day, po administered for 3 days by hematoxylin and eosin staining method; type: toxicity, organism-based; details: in vivo, 72 h, time 3 day
[43] = Acute ulcerogenic activity in Sprague-Dawley male rat assessed as change in normal non keratinized gastric mucosa at 50 mg/kg/day, po administered for 3 days by hematoxylin and eosin staining method; type: toxicity, organism-based, Stomach; details: in vivo, 72 h, time 3 day

Structure (SMILES)	Activity (Rattus norvegicus [1]) [mm]	inhibition in vivo at 50 mg/kg (Ehrlich [3]) [%]	inhibition (Sus scrofa)	Activity (Ehrlich [4])	Activity (Ehrlich [5])	Activity (Rattus norvegicus [7]) [mm]	IC50 (A2780) [nM]	IC50 (HT-29 [8]) [nM]	Activity (Ehrlich [10])	IC50 [11] [nM]	IC50 (MCF7) [nM]	selectivity ratio at 72 h [13]	Activity (Ehrlich [14])	IC50 at 72 h [15] [nM]	Activity (Rattus norvegicus [16]) [mm]	Activity (Rattus norvegicus [17]) [%]	Activity (Rattus norvegicus [18]) [%]	Activity [19]	selectivity ratio at 72 h [20]	selectivity ratio at 72 h [21]	other results
COc1ccc(NC(=O)COc2ccc(N3C(=O)CSC3c3ccccc3)cc2)cc1 (stereo not given)	0.48	27.4	inactive	Active	Active	0.56	670	240	Active	620	1510	4.13	Active	6230	0.56	59.7	15.3	1	9.3	25.9	Activity (HT-29 [2]): 5.3%; Activity (HT-29 [6]): Active; Activity [9]: Non-Toxic; Activity [12]: Non-Toxic; Activity (HT-29 [22]): 9.8%; UI [23]: 5; Activity (Rattus norvegicus [24]): 32.7%; Activity (HT-29 [25]): Active; Activity [26]: 0.67; Activity [27]: Non-Toxic; Activity [28]: 3.33%; Activity (HT-29 [29]): 75.8%; Activity (HT-29 [30]): 9%
Cc1ccc(C2SCC(=O)N2c2ccc(OCC(=O)Nc3ccc(F)cc3)cc2)cc1 (stereo not given)	0.59	57.2	inactive	Active	Active	0.55	10500	460	Active	2110	810	3.04	Active	2460	0.57	58.99	15.3	2.6	0.23	5.35	Activity [31]: Non-Toxic; Activity [32]: Toxic; Activity (HT-29 [33]): 6.1%; Activity (HT-29 [34]): 7.7%; Activity (HT-29 [35]): 10%; Activity (HT-29 [36]): 76.2%; Activity (HT-29 [37]): 6.8%; Activity (HT-29 [38]): Active; Activity (HT-29 [39]): Active; Activity (HT-29 [40]): 15.6%; UI [23]: 14.27; Activity (Rattus norvegicus [24]): 32.7%; Activity [26]: 1.67; Activity [41]: Non-Toxic; Activity [28]: 10%; Activity [42]: Toxic; Activity [43]: Non-Toxic
